Results published in ChEMBL document CHEMBL4145553, “Design, synthesis, and biological evaluation of novel amide and hydrazide based thioether analogs targeting Histone deacteylase (HDAC) enzymes” (Eur J Med Chem, 2018).

How the values were obtained:
Type in all cases: functional
U-251 = assay: Growth inhibition of human U251 cells assessed as cell growth at 10^-7 M incubated for 48 hrs by sulforhodamine B assay relative to control; details: U-251, 48 h, read-out: Activity
UACC-62 = assay: Growth inhibition of human UACC62 cells assessed as cell growth at 10^-8 M incubated for 48 hrs by sulforhodamine B assay relative to control; details: UACC-62, 48 h, read-out: Activity
NCI-H23 = assay: Growth inhibition of human NCI-H23 cells assessed as cell growth at 10^-5 M incubated for 48 hrs by sulforhodamine B assay relative to control; details: NCI-H23, 48 h, read-out: Activity
M14 = assay: Growth inhibition of human M14 cells assessed as cell growth at 10^-4 M incubated for 48 hrs by sulforhodamine B assay relative to control; details: M14, 48 h, read-out: Activity
COLO 205 = assay: Growth inhibition of human COLO205 cells assessed as cell growth at 10^-5 M incubated for 48 hrs by sulforhodamine B assay relative to control; details: COLO 205, 48 h, read-out: Activity
NCI-H522 = assay: Growth inhibition of human NCI-H522 cells assessed as cell growth at 10^-4 M incubated for 48 hrs by sulforhodamine B assay relative to control; details: NCI-H522, 48 h, read-out: Activity
Hs-578T = assay: Growth inhibition of human Hs 578T cells assessed as cell growth at 10^-4 M incubated for 48 hrs by sulforhodamine B assay relative to control; details: read-out: Activity

SMILES	growth at 0.1 µM (U-251) [%]	growth at 0.01 µM (UACC-62) [%]	growth at 10 µM (NCI-H23) [%]	growth at 100 µM (M14) [%]	growth at 10 µM (COLO 205) [%]	growth at 100 µM (NCI-H522) [%]	growth at 100 µM (Hs-578T) [%]
CCS/C(Nc1ccccc1)=C(\C#N)C(=O)N/N=C\c1ccc(Cl)cc1Cl	98	92	41	-3	–	–	–
CCS/C(Nc1ccccc1)=C(\C#N)C(=O)Nc1ccc(OC)cc1	98	93	34	–	1	-11	16
